For 8 compounds, refractive index results are on record in the NIST ThermoML archive (doi:10.1021/je2002539).

± gives the expanded uncertainty stated by the source.

One may read the refractive index as the speed of light in vacuum divided by its phase velocity in the sample.

This data set is described as follows: refractive index (Na D-line) (dimensionless). As to conditions: 298.15 K; 101.33 kPa; Liquid; Standard Abbe refractometry.

Take `CCCCCCCCCCO` [decan-1-ol]: the refractive index was found to be 1.43436 ± 0.00033.
In the case of `CCCCCCCCCCCCO` [dodecan-1-ol], the refractive index is on record as 1.44058 ± 0.00033.
The figure for `CCCCCCO` [hexan-1-ol] is 1.4158 ± 0.00033; for `CCCCCCCCCO` [nonan-1-ol] it is 1.43084 ± 0.00033.
Take `CCCCCCCCO` [octan-1-ol]: the refractive index is listed as 1.42695 ± 0.00033.
Regarding `CCCCCO` [pentan-1-ol], the refractive index was determined as 1.40703 ± 0.00033.
In the case of `CCCO` [propan-1-ol], the refractive index was determined as 1.38305 ± 0.00033.
In the case of `O` [water] it was 1.33248 ± 0.00031.
